In brackets after ≈: the same amount, converted by molar mass. Like-named read-outs stand apart in the source and are kept apart here.
Legend:
Format in all cases: cell-based
[1] = system: Candida albicans; test: In vitro susceptibility, fluconazole and CHD-FA, main experiment
Protocol: (§1) Each culture was grown on Sabouraud agar at 37° C. for 48 h to ensure purity.
(§2) Sterile plastic, disposable, microtitration plates with 96 flat-bottom wells were used.
(§3) a) Column 1 of the microtitration tray was filled with 100 μL of sterile water containing four times the final drug concentration (512 mg/L fluconazole).
(§4) b) Columns 2-12 were filled with 50 μL of distilled water
(§5) c) 50 μL amounts were taken from wells in column 1 and diluted two-fold by transferring them to column 2 with a multichannel pipette (±2% coefficient of variation). 50 μL samples were then removed from column 2 and transferred to column 3, and so on through to column 10. The last 50 μL of diluted drug is then discarded. Thus, each well in columns 1-10 will contain 50 μL of water containing four times the final antifungal drug concentrations.
(§6) Stock solutions of CHD-FA were produced containing 4% and 2% (also 1% and 0.5% for Candida parapsilosis and Candida krusei). 100 μL of the diluted CHD-FA was added to microtitration trays in so that rows contain final dilutions of: • For Candida albicans and tropicalis: 1st row of pair 0.5% CHD-FA, 2nd row of pair solvent only • For Candida glabrata: 1st row of triplet 1% CHD-FA, 2nd row of triplet 0.5% CHD-FA, 3rd row of triplet solvent only • For Candida parapsilosis and Candida krusei rows included 2%, 1%, 0.5%, 0.25 and 0.125% CHD-FA and a row of solvent only.
(§7) All the above concentrations were mixed with fixed concentrations of fluconazole at 128, 32, 8, 2, 0.5 mg/L and solvent for synergy/antagonism assessment.
(§8) 50 μL of the diluted Candida spp suspension in 4×RPMI was added to all wells. This produces a well containing 200 μL final volume (made up of 50 μL diluted fluconazole, 100 μL diluted CHD-FA or diluent, 50 μL of 4×RPMI containing Candida)
(§9) All plates were incubated at 37° C. in air in a darkened incubator.
(§10) Plates were read visually with the endpoint taken as the lowest concentration of drug that inhibited growth by 50% of that of the drug free control.

[2] = system: Candida glabrata; test: as above
Protocol: as §1, §2, §3, §4, §5, §6, §7, §8, §9, §10

[3] = system: Candida tropicalis; test: as above
Protocol: as §1, §2, §3, §4, §5, §6, §7, §8, §9, §10

[4] = system: Candida parapsilosis; test: as above; details: Lodderomyces parapsilosis, read-out: Fluconazole MIC (mg/L) alone
Protocol: as §2, §3, §4, §5, §6, §7, §8, §9, §10

[5] = system: Candida krusei; test: as above
Protocol: as §2, §3, §4, §5, §6, §7, §8, §9, §10

[6] = system: Candida albicans; test: In vitro susceptibility, fluconazole and CHD-FA, preliminary experiment (5 clinical isolates); details: read-out: Minimum Inhibitory Concentrations of Fluconazole
Protocol: as §1
Clinical Microbiology and Infection 9:1-VIII.)
a) All yeasts were cultured in ambient air at 35-37° C. on recovery medium (Sabouraud dextrose agar) for 18-24 h before testing.
b) The inoculum was prepared by picking five distinct colonies from 18 to 24 h cultures and suspending them in 5 mL of sterile distilled water.
c) The inoculum was completely suspended by vigorous shaking on a vortex mixer for 15 s. The cell density was adjusted to the density of a 0.5 McFarland standard by adding sterile distilled water and measuring absorbance in a spectrophotometer at a wavelength of 530 nm. This gave a yeast suspension of 1-5×10^6 cfu/mL. A working suspension was prepared by a further dilution of 1 in 10 further in 4×RPMI to give […] (The RPMI medium used in the plates was prepared at 4×the final strength to allow for a 75% dilution once the inoculum and diluted CHD-FA was added).
as §2, §3, §4, §5
Stock solutions of CHD-FA were produced containing 4%, 2%, 1%, 0.5% and 0.25% of the native compound. 100 μL of the diluted CHD-FA was added to microtitration trays in so that row A contains a final dilution of 2% row B, 1%, row C 0.5%, row D 0.25% row E 0.125% and row F diluent only.
50 μL of the diluted Candida albicans suspension in 4×RPMI was added to all cells. This produces a well containing 200 μL final volume (made up of 50 μL diluted fluconazole, 100 μL diluted CHD-FA or diluent, 50 μL of 4×RPMI containing Candida albicans)
as §9, §10
The pH of CHD-FA was adjusted to pH7.0 using 10M NaOH solution (the ideal pH for fluconazole activity). […] Susceptibility assays were repeated as above.

## OC(Cn1cncn1)(Cn1cncn1)c1ccc(F)cc1F [Fluconazole, fluconazole]
[1]; C. albicans isolate 1, read-out: Fluconazole MIC (mg/L) alone
  MIC: 128 mg/L
[1]; C. albicans isolate 2, read-out: Fluconazole MIC (mg/L) alone
  MIC: 8 mg/L
[1]; C. albicans isolate 3, read-out: Fluconazole MIC (mg/L) alone
  MIC: 16 mg/L
[1]; C. albicans isolate 4, read-out: Fluconazole MIC (mg/L) alone
  MIC: 4 mg/L
[1]; C. albicans isolate 5, read-out: Fluconazole MIC (mg/L) alone
  MIC: 128 mg/L
[1]; C. albicans isolate 6, read-out: Fluconazole MIC (mg/L) alone
  MIC: > 128 mg/L
[1]; C. albicans isolate 7, read-out: Fluconazole MIC (mg/L) alone
  MIC: 128 mg/L
[1]; C. albicans isolate 8, read-out: Fluconazole MIC (mg/L) alone
  MIC: 128 mg/L
[1]; C. albicans isolate 9, read-out: Fluconazole MIC (mg/L) alone
  MIC: 64 mg/L
[1]; C. albicans isolate 10, read-out: Fluconazole MIC (mg/L) alone
  MIC: 128 mg/L
[1]; C. albicans isolate 11, read-out: Fluconazole MIC (mg/L) alone
  MIC: 0.5 mg/L
[1]; C. albicans isolate 12, read-out: Fluconazole MIC (mg/L) alone
  MIC: 64 mg/L
[1]; C. albicans isolate 13, read-out: Fluconazole MIC (mg/L) alone
  MIC: 0.5 mg/L
[1]; C. albicans isolate 14, read-out: Fluconazole MIC (mg/L) alone
  MIC: 32 mg/L
[1]; C. albicans isolate 15, read-out: Fluconazole MIC (mg/L) alone
  MIC: 2 mg/L
[1]; C. albicans isolate 16, read-out: Fluconazole MIC (mg/L) alone
  MIC: 64 mg/L
[1]; C. albicans isolate 17, read-out: Fluconazole MIC (mg/L) alone
  MIC: > 128 mg/L
[1]; C. albicans isolate 18, read-out: Fluconazole MIC (mg/L) alone
  MIC: > 128 mg/L
[1]; C. albicans isolate 19, read-out: Fluconazole MIC (mg/L) alone
  MIC: 0.5 mg/L
[1]; C. albicans isolate 20, read-out: Fluconazole MIC (mg/L) alone
  MIC: > 128 mg/L
[1]; C. albicans isolate 21, read-out: Fluconazole MIC (mg/L) alone
  MIC: 4 mg/L
[1]; C. albicans isolate 22, read-out: Fluconazole MIC (mg/L) alone
  MIC: 2 mg/L
[1]; C. albicans isolate 23, read-out: Fluconazole MIC (mg/L) alone
  MIC: 1 mg/L
[1]; C. albicans isolate 24, read-out: Fluconazole MIC (mg/L) alone
  MIC: 1 mg/L
[1]; C. albicans isolate 25, read-out: Fluconazole MIC (mg/L) alone
  MIC: > 128 mg/L
[2]; C. glabrata isolate 1
  Fluconazole MIC (mg/L) alone: >128 mg/L
[2]; C. glabrata isolate 2
  Fluconazole MIC (mg/L) alone: >128 mg/L
[2]; C. glabrata isolate 3
  Fluconazole MIC (mg/L) alone: >128 mg/L
[2]; C. glabrata isolate 5
  Fluconazole MIC (mg/L) alone: >128 mg/L
[2]; C. glabrata isolate 6
  Fluconazole MIC (mg/L) alone: >128 mg/L
[2]; C. glabrata isolate 7
  Fluconazole MIC (mg/L) alone: >128 mg/L
[2]; C. glabrata isolate 8
  Fluconazole MIC (mg/L) alone: >128 mg/L
[2]; C. glabrata isolate 9
  Fluconazole MIC (mg/L) alone: >128 mg/L
[2]; C. glabrata isolate 10
  Fluconazole MIC (mg/L) alone: >128 mg/L
[2]; C. glabrata isolate 11
  Fluconazole MIC (mg/L) alone: >128 mg/L
[2]; Nakaseomyces glabratus, C. glabrata isolate 4, read-out: Fluconazole MIC (mg/L) alone
  MIC: > 128 mg/L
[3]; C. tropicalis isolate 1, read-out: Fluconazole MIC (mg/L) alone
  MIC: 16 mg/L
[3]; C. tropicalis isolate 2, read-out: Fluconazole MIC (mg/L) alone
  MIC: > 64 mg/L
[3]; C. tropicalis isolate 3, read-out: Fluconazole MIC (mg/L) alone
  MIC: 16 mg/L
[3]; C. tropicalis isolate 4, read-out: Fluconazole MIC (mg/L) alone
  MIC: 16 mg/L
[4]; C. parapsilosis isolate 1
  MIC: 8 mg/L
[4]; C. parapsilosis isolate 2
  MIC: 2 mg/L
[4]; C. parapsilosis isolate 3
  MIC: 8 mg/L
[4]; C. parapsilosis isolate 4
  MIC: 8 mg/L
[4]; C. parapsilosis isolate 5
  MIC: 8 mg/L
[5]; C. krusei isolate 1
  Fluconazole MIC (mg/L) alone: 32 mg/L
[5]; C. krusei isolate 2
  Fluconazole MIC (mg/L) alone: 32 mg/L
[5]; C. krusei isolate 4
  Fluconazole MIC (mg/L) alone: 32 mg/L
[5]; C. krusei isolate 5
  Fluconazole MIC (mg/L) alone: 32 mg/L
[5]; Pichia kudriavzevii, C. krusei isolate 3, read-out: Fluconazole MIC (mg/L) alone
  MIC: 32 mg/L
[6]; Candida Strain 1, Solvent (no CHD-FA)
  MIC: 128 mg/L (≈ 418 µM)
[6]; Candida Strain 2, Solvent (no CHD-FA)
  MIC: 16 mg/L (≈ 52.2 µM)
[6]; Candida Strain 3, Solvent (no CHD-FA)
  MIC: 16 mg/L (≈ 52.2 µM)
[6]; Candida Strain 4, Solvent (no CHD-FA)
  MIC: 32 mg/L (≈ 104 µM)
[6]; Candida Strain 5, Solvent (no CHD-FA)
  MIC: 16 mg/L (≈ 52.2 µM)

— patent US20120035125A1, “FULVIC ACID IN COMBINATION WITH FLUCONAZOLE OR AMPHOTERICIN B FOR THE TREATMENT OF FUNGAL INFECTIONS” (Natracine UK Limited, priority 2009, published 2012)
